Results as given in article PMC10076643, “Design, synthesis and anticancer activity studies of 3-(coumarin-3-yl)-acrolein derivatives: Evidenced by integrating network pharmacology and vitro assay” (Frontiers in Pharmacology, 2023).

What was measured:
[1] = system: MCF-7 (human breast cancer cell line); test: MTT antiproliferative assay, MCF-7; format: cell-based; details: MCF7, 72 h
Source text: (§1) All the synthesized compounds were screened for in vitro antiproliferative activity against four human cancer cell lines A549 (human lung cancer cell line), KB (human oral epidermoid carcinoma cell line), Hela (human cervical carcinoma cell line), MCF-7 (human breast cancer cell line) and two human normal cell lines HUVEC (human umbilical vein endothelial cell) and LO2 (human normal hepatocytes) through the 3-(4,5-dimethyl-2-thiazolyl)-2,5-diphenyl-2-H-tetrazolium bromide (MTT) assay.
(§2) Non-small-cell lung cancer (A549), oral epidermoid carcinoma (KB), cervical cancer (Hela) and breast cancer (MCF-7) cells were purchased from the American Type Culture Collection (ATCC, America). Human umbilical vein endothelial cell (HUVEC) and human normal hepatocytes (LO2) cells were provided by Guangzhou Medical University (Guangzhou, China). A549 and KB cells were cultured in RMPI-1640 medium (Gibco, America). Hela, MCF-7 and LO2 cells were cultured in DMEM medium (Gibco, America). HUVEC cells were cultured in Ham’s F-12K medium (Gibco, America). All the mediums were supplemented with 10% fetal bovine serum (FBS) (BI, State of Israel), 100 U/mL penicillin and 100 μg/mL streptomycin (Gibco, America), and all the cells were incubated in a sterile incubator at 37°C in an environment of 5% CO2. The tested compounds were dissolved in dimethyl sulfoxide (DMSO) at a concentration of 10 mM, and then diluted into different concentration of solutions by culture medium. The final concentration of DMSO was <0.01% (v/v) in all drug treatment groups to avoid the toxicity in the biological system. Untreated cells were used as a blank control and 5-fluorouracil treated cells were used as a positive control.
(§3) The incubated tumor cells were planted into 96-well plates (4×10^3 cells/well). After 24 h, the cells were adherent to the wall and treated with the compound 6e in different concentrations (0.78, 1.56, 3.12, 6.25, 12.50, 25.00, and 50.00 μM) for 72 h. Afterwards, the medium was supplemented with 10 µL MTT solution. After 4 h, the culture medium was removed and 100 µL DMSO was added. The absorbance was determined at the wavelength of 540 nm and 655 nm using a microplate reader (BioTek Epoch, America). The results were collected from three independent experiments. The IC50 was then calculated by using GraphPad Prism Software (version 7.0) and non-linear regression (curve fit).

[2] = system: KB (human oral epidermoid carcinoma cell line); test: MTT antiproliferative assay, KB; format: cell-based
Source text: as §1, §2, §3

[3] = system: AKT phosphorylation in KB cells; test: Western blot, pAKT/AKT; format: cell-based, human; details: increased concentration (0.40, 0.80, 1.60 μM), 24 h
Source text: (§4) Based on the results of network pharmacology, the key proteins related to PI3K/AKT pathway were detected by Western blotting to explore the antitumor mechanism of compound 6e. […] Such an inconsistency might be due to a compensatory increase in PI3K level after the reduction of AKT phosphorylation level. Additionally, the active-caspase 3 protein, anti-apoptosis protein Bcl-2 and pro-apoptosis protein Bax were further analyzed. Caspase-3 normally exists in the cytoplasm as zymogen. During the early stage of apoptosis, caspase-3 (32 KD) is cleaved to the active 17-kD caspase-3 fragment, which is responsible for morphological and biochemical changes in apoptosis. Bcl-2 and Bax are the […] located on the mitochondrial membrane and capable of controlling the MMP (ΔΨm) and the activation of caspase cascade.
(§5) A total of 4 × 10^5 KB cells were seeded into 6-well and grown for overnight. Then the cells adherent to the wall were treated with compound 6e in different concentrations (0, 0.40, 0.80, 1.60 μM) for 24 h. After that, cells were collected, SDS lysate, 100X protease inhibitor and 50X phosphorylation inhibitor were added in a certain proportion to lyse the cells. The protein content was determined by BCA reagent (Beyotime, China) according to the standard curve. […]

KB cells = test: JC-1 mitochondrial membrane potential (MMP) assay; format: cell-based, human; details: increasing concentration (0.5 IC50, IC50, 2 IC50), 48 h
Source text: According to the predicted results of network pharmacology, compound 6e might stimulate the oxidative stress response of cancer cells. Oxidative stress reflects an imbalance between excessive production of reactive free radical and deficits in antioxidant biosystem ([Zhong et al., 2018]). Mitochondria are the main reactors that produce reactive free radicals in cells, and MMP is a key indicator of mitochondrial activity. Excessive oxidative stress can cause a decrease in MMP, which leads to the damage of mitochondrial. It is well-known that mitochondrial damage is a major trigger for the induction of cell apoptosis and necrosis ([Kharroubi et al., 2017]; [Meng et al., 2021]). Therefore, JC-1 staining was used to investigate the effect of compound 6e on the MMP (ΔΨm) of KB cells. In normal cells, JC-1 can form aggregates in healthy mitochondria, emitting red fluorescence, while in apoptotic cells, JC-1 will stay in monomers that emit green fluorescence, implying a low value of ΔΨm. Therefore, mitochondrial depolarization is manifested by a decrease in the ratio of red to green fluorescence intensity.
MMP was determined using the JC-1 mitochondria staining Kit (Aladdin, China). […] On one hand, JC-1 red and green fluorescence intensities were measured with Varioskan™ LUX Multimode Microplate Reader (Thermo Fisher Scientific, America) under the […]. […]

PI3K in KB cells = test: Western blot, PI3K; format: cell-based, human; details: 0.40, 0.80, 1.60 μM, 24 h
Source text: as §4, §5

For `O=CC=C(Cl)c1cc2ccc(OCc3ccccc3)cc2oc1=O` [Compound 6e, 3-(7-(Benzyloxy)-2-oxo-2H-chromen-3-yl)-3-chloroacrylaldehyde], the IC50 [1] was 14.8 ± 0.28 µM, the IC50 ([2]; Homo sapiens, MTT, 72 h) was 0.39 ± 0.07 µM and the “antiproliferative activity higher than 5-FU” value ([2]; KB cells, relative to 5-FU) was 15 fold. For the same molecule, the “IC50 against KB cells lower than that of HUVECs (selectivity)” value ([2]; KB vs HUVEC) was 65 fold, the “IC50 against KB cells lower than that of LO2 cells (selectivity)” value ([2]; KB vs LO2) was 129 fold and the melting point was 223 to 225 °C. The pAKT/AKT ratios [3] was “remarkably decreased”, the “JC-1 ratio (red to green fluorescence)” value (KB cells) was “significant decrease” and the “relative PI3K level among the control and treatment groups” value (PI3K in KB cells) was “not significantly different”.
